According to patent publication US12674204B2, “Method for generating retinal pigment epithelium (RPE) cells from induced pluripotent stem cells (iPSCs)” (THE UNITED STATES OF AMERICA, as represented by the …, priority 2013, dated 2026):

Legend:
Type in all cases: cell-based, human
[1] = test system: iPSC derived retinal pigment epithelial cells; test: Aphidicolin treatment of iPSC-derived RPE: polarization, electrophysiology and phenotype
Description: (§1) Calomel electrodes in series with Ringer solutions and agar bridges were used to measure the transepithelial potential (TEP). The signals from intracellular microelectrodes were referenced to the basal bath to measure the apical and basal membrane potentials, VA and VB, where TEP=VB−VA. The total transepithelial resistance (Rt), and the ratio of the apical to basolateral membrane resistance (RA/RB) were obtained by passing 2-4 μA current pulses (peak to peak) across the tissue and measuring the resultant changes in TEP, VA and VB. See Maminishkis et al. supra and Quinn et al., supra for details.
Aphidicolin is a reversible inhibitor of eukaryotic nuclear DNA replication that blocks the cell cycle at early S phase. Its structure is that of a tetracyclic small molecule. […] It causes committed RPE cells to further mature and form fully-differentiated and highly polarized tissue monolayers (see FIGS. 30-31). Aphidicolin is dissolved in fourth medium and RPE cells are cultured in it for 6-8 weeks before analysis is done.

iPSC-derived RPE cells = test: Sensitivity of iPSC-derived RPE cells to proteotoxic stressors in 384-well plates; conditions: conc. 10 μM, signals measured four days after the treatment, FIG. 29
Method: FIG. 29 is a bar graph showing the sensitivity of iPSC-derived RPE cells to various proteotoxic stressors. RPE cells differentiated from the reporter iPS cell line were grown in 384-well plates and treated with indicated stressors (conc. 10 μM). […] signals were measured four days after the treatment.

iPSC-derived RPE = test: Intracellular calcium measurements and electrophysiology of iPSC-derived RPE monolayers
Method: Intracellular Calcium Measurements and Electrophysiology: To assess calcium signaling in the RPE cells: ATP (200 μM; Sigma) and Cyclopiazonic Acid (CPA; 10 μM; EMD Millipore); (see Maminishkis et al., Invest. Ophthal. Vis. Sci. 47(8):3612-3624, 2006); Quinn et al., Invest. Ophthal. Vis. Sci. 33(13):3513-3527, 1992).
as §1

iPSCs [2] = test: Quantitative gene expression of Pax6 and Mitf during eye-field/optic vesicle differentiation; conditions: 50 ng/ml Noggin with dual inhibition of WNT pathway and inhibition of FGF pathway
Method: After 48 hours of floating EB cultures they are plated onto MATRIGEL® coated plates in RDM medium. It was investigated whether the number of EBs plated/well affects differentiation of iPSCs into RPE. […] RDM medium was used for 3 weeks with change of medium on cells every Monday, Wednesday, and Friday Inhibition of Nodal, BMP, and WNT pathways can be important for differentiation of stem cells into eye-field cells. To inhibit the nodal pathway, the inhibitor SB431542 was used. To inhibit the activity of BMP pathway, various concentrations of Noggin, a BMP inhibitor, were tested. For WNT pathway inhibition, a combination of biological Wnt inhibitor DKK1 and a small molecule inhibitor of the WNT pathway CK1-7 were used.
Results have shown that inhibition of FGF signaling is important for RPE development. Therefore, the activity of FGF signaling pathway was modulated by either changing its concentration or/and by adding FGF inhibitor (PD 0325901) to the medium. The results were scored weekly by quantitative gene expression measurements of two transcription factors Pax6 and Mitf which are the master regulators of RPE differentiation (FIGS. 8-13). In addition, GFP expression was scored after six weeks as a direct measure of induction of RPE cells (FIG. 14).

reporter iPSC line = test: GFP reporter signal / FACS analysis of RPE differentiation from reporter iPSC line; conditions: NAW versus NA, FIG. 17
Description: To optimize the protocol for iPSC to RPE differentiation, a reporter iPSC line was created. This reporter line constitutively expresses a red fluorescent protein, whose expression is controlled by ubiquitin gene promoter. The reporter iPSC line also expresses a green fluorescent protein (GFP), specifically when differentiated in to RPE lineage (FIG. 1-3). The RPE-specific enhancer of the gene Tyrosinase controls GFP expression in this iPSC line (FIG. 1). The first goal was to confirm that the GFP expression truly represents RPE lineage. To achieve this, iPSC line were differentiated using published differentiation protocols and characterized those differentiated cells using molecular and physiological assays. These assays are disclosed in FIGS. 22-24. FIG. 2 describes a simple schematic drawing of iPSC-RPE differentiation. When the reporter iPSC were differentiated into RPE, approximately 28 days into differentiation, GFP positive cells are present (FIG. 3A). […] GFP positive and negative cells were sorted by flow cytometry and the expression of several RPE-specific genes was analyzed, shown in FIG. 4.
Activin A induces RPE differentiation from ES cells. […] When quantified by FACS analysis, NA treatment produced only 22% GFP positive cells, whereas NAW treatment produced 52% GFP positive cells (FIG. 17, bottom panel).

iPSCs [3] = test: RPE differentiation from iPSCs scored by pigmented cells
Method: Transfer cells to Retinal Media (RM) plus Nicotinamide, Activin, and Wnt3a (NAW). Change media every other day (eg. Mon, Wed, and Fri) for 3 weeks.
Next, the effect of the concentration of knockout serum replacement (KSR) on RPE differentiation was tested.
Activin A induces RPE differentiation from ES cells. In animal models, canonical WNT (WNT3a) is important for RPE differentiation. It was hypothesized that a combination of activin A and WNT3a would be effective for the induction of RPE differentiation from iPSCs. A combination of these two factors was tested at the optic vesicle stage. Cells were moved from the RDM medium to medium containing either activin A (NA) only or activin A plus WNT3a (NAW). […] Because this differentiation process was started with the reporter iPSC lines, the increase in the number of RPE cell was confirmed by comparing the GFP signal between the two treatments. […] When quantified by FACS analysis, NA treatment produced only 22% GFP positive cells, whereas NAW treatment produced 52% GFP positive cells (FIG. 17, bottom panel).

[4] = aphidicolin treated RPE cells, FIG. 31

In the case of `C[C@@]1(CO)[C@H](O)CC[C@@]2(C)[C@H]1CC[C@H]1C[C@@H]3C[C@@]12CC[C@]3(O)CO` [Aphidicolin], the membrane potential [1, 4] is reported as “higher”, the “physiological responses (hyperpolarization to low potassium or ATP on the apical side)” value [1, 4] is reported as “better physiological responses” and the transepithelial resistance [1, 4] is reported as “higher”. The “apical process / polarization of RPE cells” value ([1]; compared to non-treated cells, FIG. 30) was “more extensive apical process” and the “RPE phenotype of iPS cell derived RPE on artificial membranes/scaffolds” value ([1]; cultured 6-8 weeks in fourth medium with aphidicolin) was “improves their RPE phenotype”.

In the case of `C/C=C(/C)C(=O)O[C@H]1C(C)=C2[C@H]([C@@H]1OC(=O)CCCCCCC)[C@@](C)(OC(C)=O)C[C@H](OC(=O)CCC)[C@@]1(O)[C@H]2OC(=O)[C@@]1(C)O` [Thapsigargin], the “effect on RPE phenotype (GFP signal)” value (iPSC-derived RPE cells) is reported as “affected RPE phenotype”.

In the case of `Nc1ncnc2c1ncn2[C@@H]1O[C@H](COP(=O)(O)OP(=O)(O)OP(=O)(O)O)[C@@H](O)[C@H]1O` [ATP], the intracellular calcium response (iPSC-derived RPE; apical application, FIG. 26C) is reported as “typical bi-phasic response” and the “basolateral membrane potential response” value (iPSC-derived RPE; applied to the apical membrane, FIG. 26D) is reported as “significantly depolarizes the basolateral membrane”.

`O=CC[C@@H](O)[C@H](O)[C@H](O)CO` [2-Deoxy-D-Glucose] was tested, and the “effect on RPE phenotype (GFP signal)” value (iPSC-derived RPE cells) was “affected RPE phenotype”.

In the case of `CNc1ccc2oc(C[C@H]3O[C@@]4(CC[C@H]3C)O[C@H]([C@H](C)C(=O)c3ccc[nH]3)[C@H](C)C[C@H]4C)nc2c1C(=O)O` [A23187], the “effect on RPE phenotype (GFP signal)” value (iPSC-derived RPE cells) is reported as “affected RPE phenotype”.

B1: Noggin: a BMP inhibitor, protein encoded by the NOG gene (protein, UniProt Q13253 28-232, looked up)
Noggin: QHYLHIRPAPSDNLPLVDLIEHPDPIFDPKEKDLNETLLRSLLGGHYDPGFMATSPPEDRPGGGGGAAGGAEDLAELDQLLRQRPSGAMPSEIKGLEFSEGLAQGKKQRLSKKLRRKLQMWLWSQTFCPVLYAWNDLGSRFWPRYVKVGSCFSKRSCSVPEGMVCKPSKSVHLTVLRWRCQRRGGQRCGWIPIQYPIISECKCSC
With B1 the “expression of Pax6 and Mitf during the three weeks” value (iPSCs [2]) was “significantly and progressively improve the expression of Pax6 and Mitf”.

B2: WNT3a: canonical WNT signaling regulator (protein, UniProt P56704 19-352, looked up)
Protein Wnt-3a: SYPIWWSLAVGPQYSSLGSQPILCASIPGLVPKQLRFCRNYVEIMPSVAEGIKIGIQECQHQFRGRRWNCTTVHDSLAIFGPVLDKATRESAFVHAIASAGVAFAVTRSCAEGTAAICGCSSRHQGSPGKGWKWGGCSEDIEFGGMVSREFADARENRPDARSAMNRHNNEAGRQAIASHMHLKCKCHGLSGSCEVKTCWWSQPDFRAIGDFLKDKYDSASEMVVEKHRESRGWVETLRPRYTYFKVPTERDLVYYEASPNFCEPNPETGSFGTRDRTCNVSSHGIDGCDLLCCGRGHNARAERRREKCRCVFHWCCYVSCQECTRVYDVHTCK
In the case of B2, the “number of GFP positive cells in differentiating iPSC cultures” value (reporter iPSC line) is reported as “significantly increases the number of GFP positive cells”, the “number of pigmented cells per dish” value (iPSCs [3]; activin A plus WNT3a (NAW) versus activin A only (NA), FIG. 16) is reported as “significantly increased the number of pigmented cells per dish” and the RPE differentiation efficiency (iPSCs [3]; addition of WNT3a to Retinal Media with Nicotinamide and Activin) is reported as “significantly increased the RPE differentiation efficiency”.
